From patent US7037904B2, “Use of N-acetyl-D-glucosamine in the manufacture of pharmaceutical useful for suppressing side-effect of radiotherapy and chemotherapy” (Third Military Medical University, Chinese People's …, priority 2001, dated 2006)

Experiments:
[1] = in vivo
Description: • 1. acute toxicity test: including tests of administrating medicine by oral, Intravenous injection and maximum limit amount for administration; • 2. Ames test; • 3. micronucleus test of bone marrow cell of mouse; • 4. abnormal sexual test for the sperm of mouse; • 5. abnormal aberrance test for the chromosin of mouse's testis; • 6. chronic lethal test; • 7. subchronic toxicity (feed for 90 days) test; • 8. traditional aberrance-inducing test;

Proteus Mirabilis = assay: Promoting wave test (bio-wave model); type: cell-based; settings: final concentration of 0.5% on LB plate, 37° C.
Description: I. Promoting Wave Test of the Compound of Formula (I) 1.

CC(=O)N[C@@H]1[C@@H](O)[C@H](O)[C@@H](CO)O[C@H]1O [compound of formula (I), N-acetyl-D-glucosamine]
acute test dosage relative to the injection dosage for human being [1]: 300 times | dosage at which acute toxicosis reaction had not appeared [1]: more than 2 g/kg | promoting wave function (concentric ring pattern compared with control) (Proteus Mirabilis): there were also many fine waves on each ring emerged
